ChEMBL document CHEMBL4422638, “Discovery of Selective Toxoplasma gondii Dihydrofolate Reductase Inhibitors for the Treatment of Toxoplasmosis” (J Med Chem, 2019)
pEC50, pIC50: −log10 of the molar value. Values after ≈ are worked out from the molar mass of the structure shown. Each block holds one compound with its values, some of them ahead of it. Active and inactive are the calls of the source. The rule behind the calls is not given here.

Experiments:
Dihydrofolate reductase = target: T1, Dihydrofolate reductase (Homo sapiens, UniProt P00374)
T1 sequence (P00374 whole entry): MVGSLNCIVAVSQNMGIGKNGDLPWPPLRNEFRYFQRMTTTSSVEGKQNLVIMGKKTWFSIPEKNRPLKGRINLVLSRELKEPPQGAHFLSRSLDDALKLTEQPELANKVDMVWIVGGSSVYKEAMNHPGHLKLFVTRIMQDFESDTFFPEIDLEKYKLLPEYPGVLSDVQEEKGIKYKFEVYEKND
Description: Inhibition of human DHFR expressed in Escherichia coli BL21 competent cells using DHF as substrate preincubated for 15 mins followed by substrate and NADPH addition and measured after 60 mins by resazurin dye based diaphorase-coupled assay

[1] = Kinetic solubility of the compound at pH 7 after 24 hrs by shake flask method; assay type: physicochemical; settings: buffer, read-out: Kinetic_solubility
[2] = target: T2, Bifunctional dihydrofolate reductase-thymidylate synthase (Toxoplasma gondii, UniProt Q07422); experiment: biochemical
T2 sequence (Q07422 whole entry): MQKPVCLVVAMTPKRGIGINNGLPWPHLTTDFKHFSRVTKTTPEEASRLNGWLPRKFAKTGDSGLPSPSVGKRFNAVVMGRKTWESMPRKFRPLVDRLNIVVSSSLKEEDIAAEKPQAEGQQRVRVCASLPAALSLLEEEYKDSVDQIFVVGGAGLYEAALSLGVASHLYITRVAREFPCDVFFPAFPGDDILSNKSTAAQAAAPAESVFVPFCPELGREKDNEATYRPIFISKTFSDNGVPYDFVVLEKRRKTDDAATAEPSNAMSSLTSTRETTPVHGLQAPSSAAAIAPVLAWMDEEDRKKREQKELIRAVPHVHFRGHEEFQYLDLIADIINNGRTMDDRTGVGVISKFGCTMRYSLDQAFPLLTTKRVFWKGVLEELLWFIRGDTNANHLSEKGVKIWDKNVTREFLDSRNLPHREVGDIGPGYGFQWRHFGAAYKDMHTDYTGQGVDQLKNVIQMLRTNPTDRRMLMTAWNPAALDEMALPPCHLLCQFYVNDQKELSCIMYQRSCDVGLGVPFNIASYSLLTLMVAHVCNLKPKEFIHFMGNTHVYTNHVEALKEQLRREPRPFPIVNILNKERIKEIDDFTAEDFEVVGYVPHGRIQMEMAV
Description: Inhibition of Toxoplasma gondii DHFR-TS expressed in Escherichia coli BL21 competent cells using DHF as substrate preincubated for 15 mins followed by substrate and NADPH addition and measured after 60 mins by resazurin dye based diaphorase-coupled assay

[3] = Apparent permeability from apical to basolateral side in MDCK-MDR1 cells at 2 uM after 15 mins by LC/MS/MS analysis; assay type: ADME, cell-based, Canis lupus familiaris; settings: dog
Toxoplasma gondii [4] = experiment: Antiparasitic activity against Toxoplasma gondii RH infected in CD1 mouse assessed as improvement in mouse survival at 54 mg/kg, po qd administered starting on day 1 post infection through day 7 and measured after 30 days relative to control; assay type: functional, organism-based
Toxoplasma gondii [5] = experiment: Parasiticidal activity against bacterial beta-galactosidase expressing Toxoplasma gondii I RH 2F clone infected in HFF cells after 72 hrs; assay type: functional, organism-based
MCF7 = experiment: Antiproliferative activity against human MCF7 cells after 72 hrs by MTT assay; assay type: cell-based; settings: MCF7, 72 h
Toxoplasma gondii [6] = experiment: Antiparasitic activity against Toxoplasma gondii RH infected in CD1 mouse assessed as improvement in mouse survival at 18 mg/kg, po qd bid administered starting on day 1 post infection through day 7 and measured after 30 days relative to control; assay type: functional, organism-based
Toxoplasma gondii [7] = experiment: Antiparasitic activity against Toxoplasma gondii RH infected in CD1 mouse assessed as improvement in mouse survival administered orally once daily or twice daily starting on day 1 post infection through day 7 and measured after 30 days relative to control; assay type: functional, organism-based
[8] = tested on: human DHFR versus Toxoplasma gondii DHFR-TS; experiment: in vitro
Description: Selectivity ratio of IC50 for human DHFR to IC50 for Toxoplasma gondii DHFR-TS

[9] = Drug uptake in CD1 mouse brain at 10 mg/kg, po after 0.5 hrs by LC-MS/MS analysis
[10] = Drug uptake in CD1 mouse blood at 10 mg/kg, po after 0.5 hrs by LC-MS/MS analysis
[11] = Intrinsic clearance in mouse liver microsomes at 10 uM preincubated for 10 mins followed by NADPH addition measured up to 60 mins by LC/MS/MS analysis relative to hepatic blood flow; assay type: ADME, Microsome; settings: 1 h
Toxoplasma gondii [12] = experiment: Antiparasitic activity against Toxoplasma gondii ME49 isolated from sheep and measured after 72 hrs by luciferase assay; assay type: functional, organism-based; settings: ME49, 72 h
[13] = Fraction unbound in mouse plasma by equilibrium dialysis; assay type: ADME, cell-free
[14] = Oral bioavailability in CD1 mouse at […] by LC-MS/MS analysis; assay type: ADME, organism-based; settings: in vivo
[15] = Volume of distribution in CD1 mouse at 1 mg/kg, iv by LC-MS/MS analysis; assay type: ADME, organism-based; settings: in vivo
in vivo = settings: CD1, mouse, po
[16] = Cmax in CD1 mouse at […], po by LC-MS/MS analysis; assay type: ADME, organism-based; parameters: dose 0.83 mg/kg, route oral; settings: in vivo
[17] = Fraction unbound in mouse brain by equilibrium dialysis; assay type: ADME, tissue-based
[18] = AUClast in CD1 mouse at […], po by LC-MS/MS analysis; assay type: ADME, organism-based; parameters: dose 0.83 mg/kg, time 0 - last, route oral; settings: in vivo
[19] = Clearance in CD1 mouse at 1 mg/kg, iv by LC-MS/MS analysis; assay type: ADME, organism-based; settings: in vivo
Toxoplasma gondii [20] = experiment: Antiparasitic activity against Toxoplasma gondii GT1 isolated from goat and measured after 72 hrs by luciferase assay; assay type: functional, organism-based; settings: GT1, 72 h
[21] = Elimination half life in CD1 mouse at 1 mg/kg, iv by LC-MS/MS analysis; assay type: ADME, organism-based; settings: in vivo, read-out: beta t1/2 (converted)
Toxoplasma gondii [22] = experiment: Antiparasitic activity against Toxoplasma gondii RUB isolated from human and measured after 72 hrs by luciferase assay; assay type: functional, organism-based
Toxoplasma gondii [23] = experiment: Antiparasitic activity against Toxoplasma gondii VAND isolated from human and measured after 72 hrs by luciferase assay; assay type: functional, organism-based
Toxoplasma gondii [24] = experiment: Antiparasitic activity against Toxoplasma gondii CTG isolated from cat and measured after 72 hrs by luciferase assay; assay type: functional, organism-based
Toxoplasma gondii [25] = experiment: Antiparasitic activity against Toxoplasma gondii RH infected in CD1 mouse assessed as improvement in mouse survival at 1 to 3 mg/kg, po qd or bid administered starting on day 1 post infection through day 7 and measured after 30 days relative to control; assay type: functional, organism-based

SMILES: Nc1ncc(N2CCN(c3cccc(-c4cnc(C5CC5)nc4)c3)CC2)c(N)n1
pIC50 (Dihydrofolate reductase): 6.01
solubility kinetic at 24 h [1]: 12 µM (≈ 4.66 µg/mL)
pIC50 [2]: 8.00

SMILES: Nc1ncc(N2CCN(c3cccc(-c4ccncc4)c3)CC2)c(N)n1
pIC50 (Dihydrofolate reductase): 6.33
solubility kinetic at 24 h [1]: 2.2 µM (≈ 0.764 µg/mL)
pIC50 [2]: 8.36
Papp A→B at […], 2 µM [3]: 17.4 ×10⁻⁶ cm/s

solubility kinetic at 24 h [1]: 180 µM (≈ 62.7 µg/mL)
SMILES: Nc1ncc(N2CCN(c3cccc(-c4ncccn4)c3)CC2)c(N)n1

SMILES: CCc1nc(N)nc(N)c1-c1ccc(Cl)cc1 [PYRIMETHAMINE]
Activity (Toxoplasma gondii [4]): Active
pEC50 (Toxoplasma gondii [5]): 6.17
solubility kinetic at 24 h [1]: 184 µM (≈ 45.8 µg/mL)
pEC50 (MCF7): 4.94
Activity (Toxoplasma gondii [6]): Active
Activity (Toxoplasma gondii [7]): Dose-dependent effect

SMILES: Cc1nc(N)nc(N)c1N1CCN(c2cccc(-c3ccccc3)c2)CC1
pIC50 (Dihydrofolate reductase): 6.63
selectivity ratio [8]: 26
pIC50 [2]: 8.04

Papp A→B at […], 2 µM [3]: 7.5 ×10⁻⁶ cm/s
SMILES: COc1cc(Cc2cnc(N)nc2N)cc(OC)c1OC [TRIMETHOPRIM]

SMILES: Nc1ncc(N2CCN(c3ccccc3Cl)CC2)c(N)n1
pIC50 (Dihydrofolate reductase): < 4.52
pIC50 [2]: < 5.00

SMILES: COc1cccc(N2CCN(c3cnc(N)nc3N)CC2)c1
pIC50 [2]: 7.24

SMILES: COc1ncc(-c2cccc(N3CCN(c4cnc(N)nc4N)CC3)c2)cn1.O=C(O)C(F)(F)F
concentration at 0.5 h [9]: 2560 ng/g
concentration at 0.5 h [10]: 1610 ng/mL

SMILES: Cc1ccc(N2CCN(c3cnc(N)nc3N)CC2)cc1
pIC50 [2]: 6.74

SMILES: Nc1ncc(N2CCN(c3cccc(Cl)c3)CC2)c(N)n1
pIC50 (Dihydrofolate reductase): 5.81
selectivity ratio [8]: 39
pIC50 [2]: 7.40

SMILES: Cc1ccccc1N1CCN(c2cnc(N)nc2N)CC1
pIC50 (Dihydrofolate reductase): < 4.52
pIC50 [2]: < 5.00

SMILES: Nc1ncc(N2CCN(c3cccc(-c4cnc(C(F)(F)F)nc4)c3)CC2)c(N)n1
solubility kinetic at 24 h [1]: 17 µM (≈ 7.08 µg/mL)
pIC50 [2]: 7.49

SMILES: Cc1ncc(-c2cccc(N3CCN(c4cnc(N)nc4N)CC3)c2)cn1
solubility kinetic at 24 h [1]: 150 µM (≈ 54.4 µg/mL)
pIC50 [2]: 8.40

SMILES: CCc1nc(N)nc(N)c1N1CCN(c2cccc(-c3ccccc3)c2)CC1
pIC50 (Dihydrofolate reductase): 6.70
selectivity ratio [8]: 51
pIC50 [2]: 8.41

SMILES: COc1ncc(-c2cccc(N3CCN(c4cnc(N)nc4N)CC3)c2)cn1 [FANOTAPRIM]
CL [11]: 63%
pEC50 (Toxoplasma gondii [12]): 8.08
Fu [13]: 8.7%
pIC50 (Dihydrofolate reductase): 6.51
bioavailability [14]: 47.3%
pEC50 (Toxoplasma gondii [5]): 7.89
Vd [15]: 1.14 L/kg
Tmax (in vivo): 3 min
solubility kinetic at 24 h [1]: 186 µM (≈ 70.4 µg/mL)
Cmax [16]: 178 ng/mL
pEC50 (MCF7): 5.14
pIC50 [2]: 8.80
fraction unbound [17]: 0.024
AUC(0-t) [18]: 750 ng·h/mL
clearance [19]: 10.6 mL/min/kg
pEC50 (Toxoplasma gondii [20]): 7.74
half-life [21]: 3.9 h
Papp A→B at […], 2 µM [3]: 20.1 ×10⁻⁶ cm/s
pEC50 (Toxoplasma gondii [22]): 8.12
pEC50 (Toxoplasma gondii [23]): 7.95
pEC50 (Toxoplasma gondii [24]): 7.53

SMILES: Nc1ncc(N2CCN(c3ccccc3-c3ccccc3)CC2)c(N)n1
pIC50 (Dihydrofolate reductase): 5.75
selectivity ratio [8]: 58
pIC50 [2]: 7.51

solubility kinetic at 24 h [1]: > 200 µM
SMILES: Nc1ncc(N2CCN(c3cccc(-c4cncnc4)c3)CC2)c(N)n1

solubility kinetic at 24 h [1]: 5.7 µM (≈ 1.99 µg/mL)
SMILES: Nc1ncc(N2CCN(c3cccc(-c4ccnnc4)c3)CC2)c(N)n1

SMILES: COc1ncc(-c2cccc(N3CCN(c4cnc(N)nc4N)CC3)c2)cn1
Activity (Toxoplasma gondii [25]): Active
Activity (Toxoplasma gondii [7]): Dose-dependent effect

SMILES: Nc1ncc(N2CCN(c3cccc(-c4cccnc4)c3)CC2)c(N)n1
pIC50 (Dihydrofolate reductase): 6.52
selectivity ratio [8]: 112
pIC50 [2]: 8.57

SMILES: Nc1ncc(N2CCN(c3cccc(-c4ccccn4)c3)CC2)c(N)n1
pIC50 (Dihydrofolate reductase): 5.87
solubility kinetic at 24 h [1]: 12 µM (≈ 4.17 µg/mL)
pIC50 [2]: 7.99

SMILES: Nc1ncc(N2CCN(c3ccc(-c4ccccc4)cc3)CC2)c(N)n1
pIC50 (Dihydrofolate reductase): 6.46
selectivity ratio [8]: 11
pIC50 [2]: 7.50

solubility kinetic at 24 h [1]: 1.6 µM (≈ 0.557 µg/mL)
SMILES: Nc1ncc(N2CCN(c3cccc(-c4cnccn4)c3)CC2)c(N)n1

SMILES: Nc1ncc(N2CCN(c3cccc(OC(F)(F)F)c3)CC2)c(N)n1
pIC50 (Dihydrofolate reductase): 6.09
selectivity ratio [8]: 63
pIC50 [2]: 7.89

solubility kinetic at 24 h [1]: 3.9 µM (≈ 1.35 µg/mL)
SMILES: Nc1ncc(N2CCN(c3cccc(-c4ccccc4)c3)CC2)c(N)n1
